Where “and” joins values, the source holds several entries; their conditions need not be identical. Identical values can stand only once.
How the values were obtained:
[1] = molar heat capacity at constant pressure; conditions: 100 kPa, Liquid, Extra sensitive DSC
[2] = Liquid, Closed cell (Static) method

CCN1CCOCC1 [4-ethylmorpholine]
Conditions | molar heat capacity at constant pressure [J/K/mol] | vapor or sublimation pressure
[1], 270 K | 198.1 | –
[1], 275 K | 199.6 | –
[1], 280 K | 201.1 | –
[1], 285 K | 202.8 | –
[1], 290 K | 204.5 | –
[1], 295 K | 206.4 | –
[1], 300 K | 208.2 | –
[1], 305 K | 209.9 | –
[1], 310 K | 211.6 | –
[1], 315 K | 213.4 | –
[1], 320 K | 215.5 | –
[1], 325 K | 217.7 | –
[1], 330 K | 219.9 | –
[1], 335 K | 221.9 | –
[1], 340 K | 223.8 | –
[1], 345 K | 225.9 | –
[1], 350 K | 228 | –
[1], 355 K | 230.2 | –
[2], 243.11 K | – | 0.01727 kPa
[2], 243.12 K | – | 0.01728 kPa and 0.01725 kPa
[2], 248.15 K | – | 0.0276 kPa and 0.02761 kPa
[2], 253.15 K | – | 0.0431 kPa and 0.04308 kPa
[2], 253.16 K | – | 0.04305 kPa
[2], 258.15 K | – | 0.06592 kPa
[2], 258.16 K | – | 0.06592 kPa and 0.06589 kPa
[2], 263.16 K | – | 0.09902 kPa and 0.09898 kPa and 0.09893 kPa
[2], 268.16 K | – | 0.1459 kPa and 0.146 kPa
[2], 273.17 K | – | 0.2112 kPa and 0.2111 kPa
[2], 278.16 K | – | 0.3025 kPa
[2], 278.17 K | – | 0.3027 kPa and 0.3026 kPa
[2], 283.17 K | – | 0.4244 kPa and 0.4243 kPa
[2], 288.17 K | – | 0.5882 kPa and 0.5883 kPa and 0.5881 kPa
[2], 293.16 K | – | 0.8046 kPa and 0.8045 kPa
[2], 298.17 K | – | 1.086 kPa and 1.085 kPa

Reference: the NIST ThermoML archive (doi:10.1021/acs.jced.8b01159)
